Data from US20160052926A1, “NOVEL PYRIMIDINE AND PYRIDINE COMPOUNDS AND USAGE THEREOF” (HUTCHISON MEDIPHARMA LIMITED, priority 2013, published 2016).

What was measured:
Recombinant human FGFR1 = Recombinant human FGFR1 (Homo sapiens, UniProt P11362); assay: Transcreener Kinase Assay of FGFR1; assay type: biochemical; settings: read-out: FGFR1 (FP) IC50
Recombinant human FGFR2 = Recombinant human FGFR2 (Homo sapiens, UniProt P21802); assay: Transcreener Kinase Assay of FGFR2; assay type: biochemical; settings: read-out: FGFR2 (FP) IC50
Chain of Recombinant human FGFR2 (P21802 22-821): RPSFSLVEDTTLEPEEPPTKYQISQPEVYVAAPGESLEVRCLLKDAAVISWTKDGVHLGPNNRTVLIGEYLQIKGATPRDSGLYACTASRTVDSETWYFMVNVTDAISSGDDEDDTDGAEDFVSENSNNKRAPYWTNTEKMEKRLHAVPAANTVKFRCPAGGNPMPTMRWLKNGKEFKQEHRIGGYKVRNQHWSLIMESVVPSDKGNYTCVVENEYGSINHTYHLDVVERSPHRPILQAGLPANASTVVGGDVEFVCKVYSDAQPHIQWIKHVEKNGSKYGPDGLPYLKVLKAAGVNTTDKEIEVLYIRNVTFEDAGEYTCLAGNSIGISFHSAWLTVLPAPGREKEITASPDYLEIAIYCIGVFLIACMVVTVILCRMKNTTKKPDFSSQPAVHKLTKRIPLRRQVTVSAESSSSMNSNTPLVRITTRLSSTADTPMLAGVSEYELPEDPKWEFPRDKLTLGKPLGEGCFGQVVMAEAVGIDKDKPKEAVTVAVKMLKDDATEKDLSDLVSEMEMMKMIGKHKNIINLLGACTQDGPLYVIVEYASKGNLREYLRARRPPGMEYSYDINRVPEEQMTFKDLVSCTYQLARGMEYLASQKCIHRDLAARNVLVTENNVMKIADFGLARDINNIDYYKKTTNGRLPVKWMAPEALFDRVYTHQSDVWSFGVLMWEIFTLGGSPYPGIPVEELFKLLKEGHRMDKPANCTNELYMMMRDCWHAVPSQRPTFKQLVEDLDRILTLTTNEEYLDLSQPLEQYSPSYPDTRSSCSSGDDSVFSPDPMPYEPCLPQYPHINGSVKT

FGFR3 kinase = FGFR3 kinase (Homo sapiens, UniProt P22607); assay: Z-Lyte Kinase Assay of FGFR3; assay type: biochemical
Chain of FGFR3 kinase (P22607 23-806): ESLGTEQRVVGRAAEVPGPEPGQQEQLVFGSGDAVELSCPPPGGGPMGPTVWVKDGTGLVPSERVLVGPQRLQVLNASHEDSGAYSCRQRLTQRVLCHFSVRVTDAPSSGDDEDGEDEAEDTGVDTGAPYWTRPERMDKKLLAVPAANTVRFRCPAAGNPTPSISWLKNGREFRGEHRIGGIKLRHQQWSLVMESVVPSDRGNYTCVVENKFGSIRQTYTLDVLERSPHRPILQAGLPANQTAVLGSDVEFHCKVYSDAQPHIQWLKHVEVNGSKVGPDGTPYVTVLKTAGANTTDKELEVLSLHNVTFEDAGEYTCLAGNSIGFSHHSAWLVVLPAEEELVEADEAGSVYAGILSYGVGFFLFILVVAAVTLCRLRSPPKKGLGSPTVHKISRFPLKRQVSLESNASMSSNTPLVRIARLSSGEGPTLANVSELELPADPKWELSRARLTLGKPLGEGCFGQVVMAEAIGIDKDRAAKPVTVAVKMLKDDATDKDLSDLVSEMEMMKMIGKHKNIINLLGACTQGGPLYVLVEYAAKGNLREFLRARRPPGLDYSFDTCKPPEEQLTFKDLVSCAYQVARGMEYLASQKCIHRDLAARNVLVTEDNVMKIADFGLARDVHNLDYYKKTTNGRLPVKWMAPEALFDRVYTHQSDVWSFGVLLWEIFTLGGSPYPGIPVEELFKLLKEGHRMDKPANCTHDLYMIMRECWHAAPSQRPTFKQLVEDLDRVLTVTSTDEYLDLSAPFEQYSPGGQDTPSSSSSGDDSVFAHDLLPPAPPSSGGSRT
Outline: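 Kinase at 0.7 μg/ml with 4 μM Z-LYTE Tyr 4 peptide and ATP diluted to 300 uM (working solution, 1.33× buffer); compounds 1–0.00046 μM, 2% DMSO final. Kinase reaction and development each 1 h at RT (25-30[…]); coumarin (445 nm) and fluorescein (520 nm) emission read, inhibition from % phosphorylation.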

KG-1 = assay: Cellular Proliferation Assay (Cell Counting Kit-8), KG-1; assay type: cell-based; settings: Homo sapiens, KG1 cells, 72 hours
Procedure: (§1) Cellular Proliferation Assay
(§2) • KG-1 (ATCC Accession No. CCL-246), • SNU-16 (ATCC Accession No. CRL-5974), • RT-112 (ECACC Accession No. 85061106)
(§3) • FGFR related cancer cell proliferation is measured in 96-well plates using Cell Counting Kit-8 (Dojindo CK04-13). • Seed 30000 cells/well of KG1, 5000 cells/well of SNU16, and 1000 cells/well of RT112 in a volume of 100 μL/well in growth media. • After 24 hours, dilute the compound to 10, 3.3, 1.1, 0.37, 0.12, 0.04, 0.013, 0.004 μM, keeping the DMSO concentration at 5%. • Add 10 μL of 8-point compound series to the wells of culturing cells. • Incubate at 37° C. and 5% CO2 for 72 hours • Add 10 μL/well of CCkit8 and incubate at 37° C. and 5% CO2 for an hour • Detect the optical density of each well at 450 nm on Labsystems Multiskan K3.
(§4) • ODcompound well represents the optical density of cells treated with compound. • ODcell well represents the optical density of cells without compounds treatment. (only 0.5% DMSO) • ODcontrol well represents the optical density of culture media background
(§5) The concentration of compound providing 50% of proliferation inhibition was calculated using Excel Fit.

SNU-16 = assay: Cellular Proliferation Assay (Cell Counting Kit-8), SNU-16; assay type: cell-based; settings: Homo sapiens, SNU-16 cells, 72 hours
Procedure: as §1, §2, §3, §4, §5

RT-112 = assay: Cellular Proliferation Assay (Cell Counting Kit-8), RT-112; assay type: cell-based; settings: Homo sapiens, RT-112 cells, 72 hours
Procedure: as §1, §2, §3, §4, §5

Chain of Recombinant human FGFR1 (P11362 22-822): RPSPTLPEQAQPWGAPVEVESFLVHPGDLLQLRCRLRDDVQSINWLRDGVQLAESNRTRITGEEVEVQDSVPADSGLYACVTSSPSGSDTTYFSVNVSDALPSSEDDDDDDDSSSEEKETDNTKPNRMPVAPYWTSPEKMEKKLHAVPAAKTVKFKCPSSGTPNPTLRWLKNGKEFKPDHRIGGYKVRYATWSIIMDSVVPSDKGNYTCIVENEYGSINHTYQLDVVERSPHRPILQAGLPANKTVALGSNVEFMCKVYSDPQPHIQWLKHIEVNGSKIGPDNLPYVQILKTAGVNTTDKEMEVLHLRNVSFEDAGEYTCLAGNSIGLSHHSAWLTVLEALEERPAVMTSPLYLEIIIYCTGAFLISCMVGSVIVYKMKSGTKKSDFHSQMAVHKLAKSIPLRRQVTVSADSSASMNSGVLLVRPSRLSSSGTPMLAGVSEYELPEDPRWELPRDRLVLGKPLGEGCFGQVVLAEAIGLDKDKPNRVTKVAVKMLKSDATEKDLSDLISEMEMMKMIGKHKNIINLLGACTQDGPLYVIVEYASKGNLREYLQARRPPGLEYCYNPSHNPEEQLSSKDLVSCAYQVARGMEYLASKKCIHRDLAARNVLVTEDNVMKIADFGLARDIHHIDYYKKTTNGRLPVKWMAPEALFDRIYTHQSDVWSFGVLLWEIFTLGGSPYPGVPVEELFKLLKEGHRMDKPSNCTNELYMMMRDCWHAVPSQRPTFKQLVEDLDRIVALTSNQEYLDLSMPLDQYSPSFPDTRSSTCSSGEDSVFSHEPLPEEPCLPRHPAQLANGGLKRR

Row | Compound | IC50 (Recombinant human FGFR1) | IC50 (Recombinant human FGFR2) | IC50 (FGFR3 kinase) | IC50 (SNU-16) | IC50 (KG-1) | IC50 (RT-112)
1 | CNC(=O)c1cc(CCc2cnc(Nc3ccnc(OC)c3)nc2)c(F)c(OC)c1 [Compound 62] | 20 nM | 9 nM | 33 nM | 49 nM | 46 nM | 152 nM
2 | CONC(=O)c1cc(CCc2cnc(Nc3cnn(CCO)c3)nc2)cc(OC)c1 [Compound 108] | 5 nM | 3 nM | 10 nM | 112 nM | 110 nM | 562 nM
3 | CCn1cc(Nc2ncc(/C=C/c3c(F)c(C(=O)NC)cc(OC)c3Cl)cn2)cn1 [Compound 2] | 17 nM | 10 nM | 17 nM | 31 nM | 17 nM | 19 nM
4 | CNC(=O)c1cc(COc2ccc(Nc3ccc(N4C[C@@H](C)N[C@@H](C)C4)cc3)nc2)c(F)c(OC)c1 [Compound 191] | 181 nM | 68 nM | 334 nM | 534 nM | 647 nM | 540 nM
5 | CNC(=O)c1cc(CCc2cnc(Nc3cnn(-c4cccnc4)c3)nc2)c(F)c(OC)c1 [Compound 128] | 20 nM | 10 nM | 14 nM | 15 nM | 47 nM | 112 nM
6 | CNC(=O)c1cc(CCc2cnc(Nc3cnn(C4CCN(C)CC4)c3)nc2)c(F)c(OC)c1 [Compound 173] | 8 nM | 7 nM | 28 nM | 20 nM | 41 nM | 135 nM
7 | CNC(=O)c1cc(CCc2cnc(Nc3cnn(C4CC4)c3)nc2)c(F)c(OC)c1 [Compound 107] | 10 nM | 7 nM | 14 nM | 26 nM | 28 nM | 90 nM
8 | CCN1CCC[C@H](n2cc(Nc3ncc(CCc4cc(C(=O)NC)cc(OC)c4F)cn3)cn2)C1 [Compound 175] | 9 nM | 6 nM | 8 nM | 14 nM | 23 nM | 57 nM
9 | CNC(=O)c1cc(CCc2cnc(Nc3ccc4c(C)n(C)nc4c3)nc2)c(F)c(OC)c1 [Compound 130] | 8 nM | 5 nM | 10 nM | 32 nM | 28 nM | 48 nM
10 | CCN1CCC[C@@H](n2cc(Nc3ncc(CCc4cc(C(=O)NC)cc(OC)c4F)cn3)cn2)C1 [Compound 174] | 10 nM | 6 nM | 5 nM | 17 nM | 40 nM | 65 nM
11 | CCN1CC[C@@H](n2cc(Nc3ncc(CCc4cc(C(=O)NC)cc(OC)c4F)cn3)cn2)C1 [Compound 171] | 43 nM | 41 nM | 50 nM | 48 nM | 128 nM | 655 nM
12 | CNC(=O)c1cc(CCc2cnc(Nc3cnn(C4CC4)c3)nc2)c(Cl)c(OC)c1 [Compound 119] | 11 nM | 6 nM | 19 nM | 27 nM | 22 nM | 124 nM
13 | CCn1cc(Nc2ncc(CCc3cc(C(=O)NC)cc(OC)c3F)cn2)cn1 [Compound 100, 3-(2-(2-(1-ethyl-1H-pyrazol-4-ylamino)pyrimidin-5-yl)ethyl)-4-fluoro-5-methoxy-N-methylbenzamide] | 12 nM | 5 nM | 13 nM | 24 nM | 21 nM | 94 nM
14 | CNC(=O)c1cc(CCc2cnc(Nc3cnn(C[C@H](C)O)c3)nc2)c(F)c(OC)c1 [Compound 32] | 18 nM | 6 nM | 5 nM | 30 nM | 57 nM | 104 nM
15 | CCONC(=O)c1cc(CCc2cnc(Nc3ccc(N4CCN(CC)CC4)cc3)nc2)cc(OC)c1 [Compound 50] | 14 nM | 15 nM | 29 nM | 132 nM | 45 nM | 352 nM
16 | CCN1CCN(c2ccc(Nc3ncc(CCc4cc(OC)cc(C(=O)NC)c4)cn3)cc2)CC1 [Compound 1, 3-(2-(2-((4-(4-ethylpiperazin-1-yl)phenyl)amino)pyrimidin-5-yl)ethyl)-5-methoxy-N-methylbenzamide] | 24 nM | 19 nM | 28 nM | 95 nM | 49 nM | 612 nM

More lines, in order of falling IC50 (Recombinant human FGFR1), values ahead:

Row | IC50 (Recombinant human FGFR1) | IC50 (Recombinant human FGFR2) | IC50 (FGFR3 kinase) | IC50 (SNU-16) | Compound | IC50 (KG-1) | IC50 (RT-112)
17 | 71 nM | 8 nM | 24 nM | 34 nM | CNC(=O)c1cc(CCc2cnc(Nc3cnn(-c4ccc(C)nc4)c3)nc2)c(F)c(OC)c1 [Compound 134] | 33 nM | 84 nM
18 | 37 nM | 13 nM | 32 nM | 52 nM | CNC(=O)c1cc(CCc2cnc(Nc3ccc(N4CCCCC4=O)cc3)nc2)c(F)c(OC)c1 [Compound 145, 4-fluoro-3-methoxy-N-methyl-5-(2-(2-(4-(2-oxopiperidin-1-yl)phenylamino)pyrimidin-5-yl)ethyl)benzamide] | 154 nM | 260 nM
19 | 37 nM | 27 nM | 44 nM | 71 nM | CNC(=O)c1cc(CCc2cnc(Nc3ccc4nncn4c3)nc2)c(F)c(OC)c1 [Compound 67] | 89 nM | 263 nM
20 | 33 nM | 13 nM | 46 nM | 58 nM | CNC(=O)c1cc(CCc2cnc(Nc3ccc4nc(C)oc4c3)nc2)c(F)c(OC)c1 [Compound 34] | 132 nM | 308 nM
21 | 31 nM | 11 nM | 30 nM | 48 nM | CNC(=O)c1cc(CCc2cnc(Nc3cnn(C)c3C)nc2)c(F)c(OC)c1 [Compound 105] | 201 nM | 428 nM
22 | 29 nM | 10 nM | 40 nM | 68 nM | CNC(=O)c1cc(CCc2cnc(Nc3ccc(OC)nc3)nc2)c(F)c(OC)c1 [Compound 30] | 55 nM | 241 nM
23 | 23 nM | 11 nM | 18 nM | 25 nM | CCN(CC)CCn1cc(Nc2ncc(CCc3cc(C(=O)NC)cc(OC)c3F)cn2)cn1 [Compound 136] | 92 nM | 37 nM
24 | 22 nM | 7 nM | 17 nM | 19 nM | CNC(=O)c1cc(CCc2cnc(Nc3cnn(C[C@@H](C)O)c3)nc2)c(F)c(OC)c1 [Compound 33] | 47 nM | 135 nM
25 | 21 nM | 616 nM | 31 nM | 29 nM | CNC(=O)c1cc(CCc2cnc(Nc3cnn(CC(F)(F)F)c3)nc2)c(F)c(OC)c1 [Compound 36] | 52 nM | 160 nM
26 | 15 nM | 16 nM | 152 nM | 149 nM | CNC(=O)c1cc(CCc2cnc(Nc3cnn(-c4ccccn4)c3)nc2)c(Cl)c(OC)c1 [Compound 151] | 71 nM | 626 nM
27 | 14 nM | 15 nM | 18 nM | 27 nM | CCN1CCC(n2cc(Nc3ncc(CCc4cc(C(=O)NC)cc(OC)c4Cl)cn3)cn2)CC1 [Compound 178] | 72 nM | 186 nM
28 | 12 nM | 6 nM | 12 nM | 16 nM | CNC(=O)c1cc(COc2cnc(Nc3ccc(N4C[C@@H](C)N[C@@H](C)C4)c(F)c3)nc2)c(F)c(OC)c1 [Compound 195] | 25 nM | 25 nM
29 | 9 nM | 7 nM | 8 nM | 17 nM | CNC(=O)c1cc(CCc2cnc(Nc3cnn(C(C)C)c3)nc2)c(F)c(OC)c1 [Compound 112] | 18 nM | 36 nM
30 | 5 nM | 4 nM | 8 nM | 16 nM | CCN1CCN(c2cc(Nc3ncc(CCc4cc(OC)cc(C(=O)NOC)c4)cn3)ccn2)CC1 [Compound 76] | 43 nM | 67 nM
31 | 5 nM | 4 nM | 9 nM | 15 nM | CCN1CCN(c2ccc(Nc3ncc(CCc4cc(C(=O)NC)cc(OC)c4F)cn3)cc2)CC1 [Compound 44] | 9 nM | 51 nM
32 | 5 nM | 4 nM | 8 nM | 19 nM | CCN1CCN(c2ccc(Nc3ncc(CCc4cc(C(=O)NC)cc(OC)c4F)cn3)cc2)C[C@H]1C [Compound 53] | 14 nM | 49 nM
